Data reported in ChEMBL document CHEMBL1828570, “Modeling the molecular basis for α4β1 integrin antagonism” (Bioorg Med Chem, 2011).

Target: Integrin alpha-4/beta-1 (Homo sapiens, UniProt P05556+P13612)
Experiment: Antagonist activity at alpha4beta1 integrin
Type: functional

Chain of Integrin alpha-4/beta-1 (P05556 whole entry): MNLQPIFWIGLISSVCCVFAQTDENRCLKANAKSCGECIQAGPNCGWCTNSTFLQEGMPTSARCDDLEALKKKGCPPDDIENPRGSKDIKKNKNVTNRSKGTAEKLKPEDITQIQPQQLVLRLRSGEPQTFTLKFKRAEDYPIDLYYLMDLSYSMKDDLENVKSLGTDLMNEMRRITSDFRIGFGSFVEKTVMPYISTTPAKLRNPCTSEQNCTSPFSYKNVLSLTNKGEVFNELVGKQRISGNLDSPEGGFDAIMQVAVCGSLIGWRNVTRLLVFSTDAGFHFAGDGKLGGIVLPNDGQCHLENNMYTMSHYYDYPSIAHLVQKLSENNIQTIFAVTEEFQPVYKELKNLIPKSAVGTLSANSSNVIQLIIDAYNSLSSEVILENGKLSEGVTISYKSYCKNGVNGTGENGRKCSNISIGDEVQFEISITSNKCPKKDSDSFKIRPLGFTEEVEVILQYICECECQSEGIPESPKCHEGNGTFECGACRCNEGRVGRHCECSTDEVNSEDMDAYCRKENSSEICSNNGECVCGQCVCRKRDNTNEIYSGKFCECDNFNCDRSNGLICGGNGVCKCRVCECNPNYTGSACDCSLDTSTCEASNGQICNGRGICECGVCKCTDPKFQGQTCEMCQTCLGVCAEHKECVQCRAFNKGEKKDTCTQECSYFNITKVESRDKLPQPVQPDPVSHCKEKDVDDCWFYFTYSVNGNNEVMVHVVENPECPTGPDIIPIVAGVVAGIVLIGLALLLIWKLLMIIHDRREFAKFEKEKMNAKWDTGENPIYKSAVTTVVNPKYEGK
Chain of Integrin alpha-4/beta-1 (P13612 whole entry): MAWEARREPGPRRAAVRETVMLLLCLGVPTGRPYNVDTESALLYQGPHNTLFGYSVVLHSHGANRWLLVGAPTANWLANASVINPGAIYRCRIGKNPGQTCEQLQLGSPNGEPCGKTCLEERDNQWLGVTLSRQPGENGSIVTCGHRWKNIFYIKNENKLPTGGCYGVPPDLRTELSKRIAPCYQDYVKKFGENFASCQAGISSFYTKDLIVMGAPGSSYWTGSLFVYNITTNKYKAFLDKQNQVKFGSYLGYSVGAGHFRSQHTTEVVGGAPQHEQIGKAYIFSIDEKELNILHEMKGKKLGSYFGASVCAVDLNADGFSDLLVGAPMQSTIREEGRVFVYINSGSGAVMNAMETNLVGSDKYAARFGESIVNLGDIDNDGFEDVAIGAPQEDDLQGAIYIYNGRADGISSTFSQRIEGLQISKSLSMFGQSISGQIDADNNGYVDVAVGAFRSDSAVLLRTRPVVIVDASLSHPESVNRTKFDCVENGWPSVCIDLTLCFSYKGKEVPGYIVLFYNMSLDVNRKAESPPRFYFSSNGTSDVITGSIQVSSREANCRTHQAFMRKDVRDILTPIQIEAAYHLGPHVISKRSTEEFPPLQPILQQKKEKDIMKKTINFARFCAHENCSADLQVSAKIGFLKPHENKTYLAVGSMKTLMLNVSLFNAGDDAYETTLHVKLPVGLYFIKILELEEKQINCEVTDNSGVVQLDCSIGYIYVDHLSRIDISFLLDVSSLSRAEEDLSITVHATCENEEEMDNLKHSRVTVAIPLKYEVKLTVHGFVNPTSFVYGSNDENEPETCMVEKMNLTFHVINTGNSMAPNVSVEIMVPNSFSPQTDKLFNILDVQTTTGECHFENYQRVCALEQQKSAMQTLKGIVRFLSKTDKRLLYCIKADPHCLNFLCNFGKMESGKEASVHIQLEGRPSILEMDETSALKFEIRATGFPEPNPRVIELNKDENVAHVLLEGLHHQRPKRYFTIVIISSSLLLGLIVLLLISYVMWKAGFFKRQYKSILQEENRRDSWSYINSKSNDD

Row | IC50 | SMILES
1 | 4.5 nM | CC(C)C(=O)Oc1cccc(OC(=O)C(C)C)c1-c1ccc(C[C@@H](NC(=O)[C@@]2(C)CCCN2S(=O)(=O)c2cc(Cl)cc(Cl)c2)C(=O)O)cc1
2 | 4100 nM | O=C(O)[C@@H](CSSCCNC(=O)C12CC3CC(CC(C3)C1)C2)NC12CC3CC(CC(C3)C1)C2
3 | 6 nM | CS(=O)(=O)CCCCC1(C(=O)N[C@H](Cc2ccc(NC(=O)c3c(Cl)cccc3Cl)cc2)C(=O)O)CCC1
4 | 2 nM | O=C(O)CC[C@H](NCS(=O)(=O)c1ccccc1)C(=O)N[C@@H](Cc1ccc(OCc2c(Cl)cccc2Cl)cc1)C(=O)O
5 | 105 nM | O=C(Nc1ccc(C[C@H](NC(=O)[C@@H]2C3CCC(CC3)N2S(=O)(=O)c2ccccc2Cl)C(=O)O)cc1)c1cc(Cl)nc(Cl)c1
6 | 67 nM | CCCNc1c(N[C@@H](Cc2ccc(OCc3c(Cl)cccc3Cl)cc2)C(=O)O)c(=O)c1=O
7 | 0.07 nM | COc1cccc(OC)c1-c1ccc(C[C@@H](NC(=O)[C@@]2(C)CCN2S(=O)(=O)c2cc(Cl)cc(Cl)c2)C(=O)O)cc1
8 | 1.27 nM | COCCCC[C@@]1(C(=O)N[C@H](Cc2ccc(-c3c(OC)cccc3OC)cc2)C(=O)O)CCCO1
9 | 36.8 nM | COc1ccccc1-c1ccc(C[C@H](NC(=O)Cc2ccccc2Cl)C(=O)O)cc1
10 | 140 nM | COc1cccc(OC)c1-c1ccc(C[C@H](NC[C@@H]2CCCN2S(=O)(=O)c2cc(Cl)cc(Cl)c2)C(=O)O)cc1
